Data taken from PubChem BioAssay (NCI).
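These data come from cells grown in 96-well plates and exposed to compound for 48 hours at five concentrations. At the GI50, growth is halved. Definition used: TGI = concentration required for complete inhibition of growth.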

Experiments:
Experiment in all cases: inhibition of tumour cell growth, NCI panel, 48 h
SF-539 CNS = tested on: SF-539 CNS
COLO 205 colon = tested on: COLO 205 colon
MALME-3M melanoma = tested on: MALME-3M melanoma
MDA-MB-435 = tested on: MDA-MB-435
UACC-257 melanoma = tested on: UACC-257 melanoma
TK-10 renal = tested on: TK-10 renal
ACHN renal = tested on: ACHN renal
BT-549 breast = tested on: BT-549 breast
SF-295 CNS = tested on: SF-295 CNS
OVCAR-4 ovarian = tested on: OVCAR-4 ovarian

Compound	GI50 (SF-539 CNS) [µM]	TGI (SF-539 CNS) [µM]	GI50 (COLO 205 colon) [µM]	TGI (COLO 205 colon) [µM]	GI50 (MALME-3M melanoma) [µM]	TGI (MALME-3M melanoma) [µM]	GI50 (MDA-MB-435) [µM]	TGI (MDA-MB-435) [µM]	GI50 (UACC-257 melanoma) [µM]	TGI (UACC-257 melanoma) [µM]	GI50 (TK-10 renal) [µM]	TGI (TK-10 renal) [µM]	GI50 (ACHN renal) [µM]	TGI (ACHN renal) [µM]	GI50 (BT-549 breast) [µM]	TGI (BT-549 breast) [µM]	GI50 (SF-295 CNS) [µM]	TGI (SF-295 CNS) [µM]	GI50 (OVCAR-4 ovarian) [µM]	TGI (OVCAR-4 ovarian) [µM]
Cc1n(Cc2ccc3ccccc3n2)cc[n+]1Cc1ccc2ccccc2c1	0.579	8.76	0.302	1.1	0.394	2.37	0.412	2.69	0.506	2.89	1.94	7.96	9.46	46.4	0.64	4.1	1.47	7.62	0.342	11.3
CCc1c(C#N)c(SC(C(N)=O)c2ccccc2)nc(N2CCC(N)CC2)c1C#N (stereo not drawn)	15.3	28.9	14.2	27.8	14.6	28.1	15.4	29.6	14.3	29.3	15.3	29.9	18.1	38.8	13.6	27.3	14.8	28.7	15.5	34.3
Cc1cn2c(/C=C3/C(=O)Nc4ccc(C(=O)O)cc43)c(C)nc2s1	> 100	> 100	> 100	> 100	> 100	> 100	> 100	> 100	> 100	> 100	> 100	> 100	> 100	> 100	> 100	> 100	> 100	> 100	> 100	> 100
Nc1ccn([C@@H]2S[C@H](CO)[C@@H](O)[C@@H]2F)c(=O)n1	0.317	–	0.407	> 100	1.52	> 100	0.18	> 100	1.34	> 100	> 100	> 100	0.0271	–	1.74	> 100	0.452	> 24.7	> 100	> 100
Cc1ccc(C(=O)N2C/C(=C/c3ccccc3)C(=O)/C(=C/c3ccccc3)C2)cc1	9.66	72.2	8.7	> 100	30.6	> 100	1.01	6.41	10.1	> 100	20.8	90	5.04	> 67.1	3.42	15.8	5.36	> 100	16.5	> 100
Oc1ccc(-c2[nH]c3ccccc3c2-c2nc3ccccc3o2)cc1	7.56	22.1	3.54	12.6	7.47	28.3	2.26	8.74	4.59	18.3	5.49	16.8	3.58	14.9	5.41	18.8	4.48	19.4	2.14	14.7
